Experiment in all cases: MIC, agar dilution
Common to all, as to assay type: cell-based

Experiment [1] relates to S. aureus UBMS 90-3 (Sensitive). As to conditions: S. aureus UBMS 90-3 (Sensitive).
The subject of experiment [2] is E. coli ATCC 25922. As to conditions: E. coli ATCC 25922.
In experiment [3] the test system is S. aureus Smith (Sensitive). As to conditions: S. aureus Smith (Sensitive).
The test system of experiment [4] is E. coli UBMS 89-2 (Sensitive). The following applies: E. coli UBMS 89-2 (Sensitive).
Experiment [5] has as its system S. aureus UBMS 88-5 (tetM). The following applies: S. aureus UBMS 88-5 (tetM).
The test system of experiment [6] is S. aureus UBMS 90-2 (tetM). As to conditions: S. aureus UBMS 90-2 (tetM).
The subject of experiment [7] is S. aureus IVES 2943 (meth. resistant). The following applies: S. aureus IVES 2943 (meth. resistant).
The test system of experiment [8] is E. coli UBMS 88-1 (tetB). As to conditions: E. coli UBMS 88-1 (tetB).
Experiment [9] deals with E. coli UBMS 88-2 (Sensitive). The following applies: E. coli UBMS 88-2 (Sensitive).
Experiment [10] deals with S. aureus UBMS 90-1 (tetM). The following applies: S. aureus UBMS 90-1 (tetM).
Experiment [11] has as its system S. aureus UBMS 88-7 (tetK). As to conditions: S. aureus UBMS 88-7 (tetK).
Experiment [12] deals with S. aureus ATCC 29213 (Sensitive). The following applies: S. aureus ATCC 29213 (Sensitive).
Experiment [13] deals with S. aureus IVES 1983 (meth. resistant). The following applies: S. aureus IVES 1983 (meth. resistant).
In experiment [14] the test system is E. faecalis ATCC 29212. The following applies: E. faecalis ATCC 29212.
Experiment [15] deals with E. faecalis 12201. As to conditions: E. faecalis 12201.
The subject of experiment [16] is S. aureus UBMS 88-4 (Sensitive). As to conditions: S. aureus UBMS 88-4 (Sensitive).
The test system of experiment [17] is S. haemolyticus AVAH 88-3. As to conditions: S. haemolyticus AVAH 88-3.

Structures are written as SMILES. ≈ marks a conversion by molar mass, not a printed value.

For `CCN(CC)c1cc(NC=O)c(O)c2c1C[C@H]1C[C@H]3[C@H](N(C)C)C(O)=C(C(N)=O)C(=O)[C@@]3(O)C(O)=C1C2=O.O=S(=O)(O)O.O=S(=O)(O)O` [D, 7-(Diethylamino)-9-(formylamino)-6-demethyl-6-deoxytetracycline disulfate], the MIC in experiment [1] was found to be 0.06 µg/mL; in experiment [2] it was 0.5 µg/mL; in experiment [3] it was 0.03 µg/mL; in experiment [4] it was 0.5 µg/mL; in experiment [5] it was 0.25 µg/mL; in experiment [6], 0.12 µg/mL. The MIC in experiment [7] was 4 µg/mL; in [8] it was over 32 µg/mL; in experiment [9], 0.5 µg/mL; in experiment [10], 0.5 µg/mL; in experiment [11], 2 µg/mL; in experiment [12] it was “≦0.015 μg/ml”. In addition, the MIC in experiment [13] came out at 4 µg/mL; in experiment [14], 0.12 µg/mL; in experiment [15] it was 1 µg/mL; in experiment [16], 0.12 µg/mL.

In the case of `CN(C)c1cc(NC(=O)c2ccccc2)c(O)c2c1CC1CC3C(N(C)C)C(O)=C(C(N)=O)C(=O)C3(O)C(O)=C1C2=O` (stereo not shown) [P, 9-(Benzoylamino)-7-(dimethylamino)-6-demethyl-6-deoxytetracycline], the MIC in experiment [1] was 1 µg/mL (≈ 1.73 µM); in experiment [2], over 32 µg/mL; in [3], 1 µg/mL (≈ 1.73 µM); in experiment [4], over 32 µg/mL; in experiment [5], 4 µg/mL (≈ 6.94 µM); in experiment [6] it was 4 µg/mL (≈ 6.94 µM). Moreover, the minimal inhibitory concentration (MIC) was 16 µg/mL (≈ 27.7 µM) in experiment [7]; over 32 µg/mL in [8]; over 32 µg/mL in experiment [9]; 4 µg/mL (≈ 6.94 µM) in experiment [10]; 8 µg/mL (≈ 13.9 µM) in experiment [11]; 0.25 µg/mL (≈ 0.434 µM) in experiment [12]. The MIC in [13] was 8 µg/mL (≈ 13.9 µM); in experiment [17], 4 µg/mL (≈ 6.94 µM); in [14], 4 µg/mL (≈ 6.94 µM); in experiment [15], 8 µg/mL (≈ 13.9 µM); in [16] it was 4 µg/mL (≈ 6.94 µM).

Take `COc1ccc(C(=O)Nc2cc(N(C)C)c3c(c2O)C(=O)C2=C(O)C4(O)C(=O)C(C(N)=O)=C(O)C(N(C)C)C4CC2C3)cc1` (stereo not shown) [Q, 7-(Dimethylamino)-9-[(4-methoxybenzoyl)amino)-6-demethyl-6-deoxytetracycline]: the MIC in experiment [1] was 4 µg/mL (≈ 6.59 µM); in experiment [2], over 32 µg/mL; in experiment [3], 4 µg/mL (≈ 6.59 µM); in experiment [4], over 32 µg/mL; in [5], 8 µg/mL (≈ 13.2 µM); in [6], 8 µg/mL (≈ 13.2 µM). Besides, the MIC is 8 µg/mL (≈ 13.2 µM) in experiment [7]; over 32 µg/mL in [8]; over 32 µg/mL in [9]; 8 µg/mL (≈ 13.2 µM) in experiment [10]; 16 µg/mL (≈ 26.4 µM) in experiment [11]; 1 µg/mL (≈ 1.65 µM) in [12]. The minimal inhibitory concentration (MIC) in [13] came out at 16 µg/mL (≈ 26.4 µM); in [17] it was 8 µg/mL (≈ 13.2 µM); in experiment [14], 8 µg/mL (≈ 13.2 µM); in experiment [15], 8 µg/mL (≈ 13.2 µM); in experiment [16], 8 µg/mL (≈ 13.2 µM).

`Cc1ccccc1C(=O)Nc1cc(N(C)C)c2c(c1O)C(=O)C1=C(O)C3(O)C(=O)C(C(N)=O)=C(O)C(N(C)C)C3CC1C2` (stereo not shown) [R, 7-(Dimethylamino)-9-((2-methylbenzoyl)amino]-6-demethyl-6-deoxytetracycline]: the MIC in experiment [1] was 1 µg/mL (≈ 1.69 µM); in experiment [2], over 32 µg/mL; in experiment [3] it was 1 µg/mL (≈ 1.69 µM); in experiment [4], over 32 µg/mL; in [5] it was 4 µg/mL (≈ 6.77 µM); in experiment [6] it was 2 µg/mL (≈ 3.39 µM). In addition, the minimal inhibitory concentration (MIC) in experiment [7] was 4 µg/mL (≈ 6.77 µM); in experiment [8], 2 µg/mL (≈ 3.39 µM); in [9], over 32 µg/mL; in experiment [10], 8 µg/mL (≈ 13.5 µM); in experiment [11], 4 µg/mL (≈ 6.77 µM); in experiment [12], 0.12 µg/mL (≈ 0.203 µM). Further, the minimum inhibitory concentration (MIC) was determined as 8 µg/mL (≈ 13.5 µM) in experiment [13]; 8 µg/mL (≈ 13.5 µM) in [17]; 2 µg/mL (≈ 3.39 µM) in experiment [14]; 8 µg/mL (≈ 13.5 µM) in experiment [15]; 2 µg/mL (≈ 3.39 µM) in experiment [16].

For orientation: MIC means the lowest concentration found to suppress growth.

These data come from patent USRE40086E1, “Method for treating bacterial infection with novel 7-substituted-9-substituted amino 6-demethyl-6-deoxytetracyclines” (Wyeth Holdings Corporation, priority 1991, dated 2008).
